Experimental data taken from patent US20250376464A1 (Trawsfynydd Therapeutics, Inc., priority 2022, published 2025).

target: SARS-CoV2-Mpro (Severe acute respiratory syndrome coronavirus 2 (2019-nCoV) (SARS-CoV-2), UniProt P0DTD1); test: Primary assay: SARS-CoV2-Mpro enzymatic activity inhibition; assay type: biochemical; conditions: enzyme preincubated with compound for 20 min; slope of linear portion of signal
Description: Example A. Primary Assay Used to Determine Potency of SARS-CoV2-Mpro Enzymatic Activity Inhibition
• (1) Deliver 2× Enzyme • (2) Deliver buffer into No Enzyme wells • (3) Deliver compounds in 100% DMSO by using Acoustic technology (Echo550; nanoliter range) • (4) Incubate for 20 min • (5) Deliver 2× Substrate to initiate the reaction • (6) Spin & shake, start measuring in EnVision at rt; 5 min interval for 25 (2 hours) • (7) Analyze data by taking slope (signal/time) of linear portion of measurement • (8) Slope is calculated by using Excel, and curve fits are performed using Prism software.
The % inhibition was then used to calculate the IC50 values. The IC50 values are shown in Table A, wherein “A” corresponds to IC50<10.0 nm, “B” corresponds to 10.0 nm≤IC50<50.0 nm, “C” corresponds to 50.0 nm≤IC50<100.0 nm, “D” corresponds to 100.0 nm≤IC50<500.0 nm, and “E” corresponds to 500.0 nm≤IC50<1000.0 nm, and “F” corresponds to 1000.0 nm≤IC50.

SMILES	IC50 [nM]
Cc1ccc2c(c1)C(CC(C#N)NC(=O)C1C3[C@H](CN1C(=O)[C@@H](NC(=O)C(F)(F)F)C(C)(C)C)C3(C)C)C(=O)N2 (stereo in doubt) [Compound 230, (1S,2S,5S)-N-[1-cyano-2-(5-methyl-2-oxo-indolin-3-yl)ethyl]-3-[(2S)-3,3-dimethyl-2-[(2,2,2-trifluoroacetyl)amino]butanoyl]-6,6-dimethyl-3-azabicyclo[3.1.0]hexane-2-carboxamide]	10 to 50
CCOC(=O)N[C@H](C(=O)N1C[C@H]2C([C@H]1C(=O)N[C@H](C#N)CC1C(=O)Nc3ccccc31)C2(C)C)C(C)(C)C (stereo in doubt) [Compound 244, Ethyl N-[(1S)-1-[(1S)-2-[[(1S)-1-cyano-2-(2-oxoindolin-3-yl)ethyl]carbamoyl]-6,6-dimethyl-3-azabicyclo[3.1.0]hexane-3-carbonyl]-2,2-dimethyl-propyl]carbamate]	10 to 50
CC(C)(C)[C@H](NC(=O)C(F)(F)F)C(=O)N1C[C@H]2[C@H]([C@H]1C(=O)NC(C#N)CC1C(=O)Nc3ccccc31)C2(C)C (stereo partly drawn) [Compound 226, (1S,2S,5S)—N-[1-cyano-2-(2-oxoindolin-3-yl)ethyl]-3-[(2S)-3,3-dimethyl-2-[(2,2,2-trifluoroacetyl)amino]butanoyl]-6,6-dimethyl-3-azabicyclo[3.1.0]hexane-2-carboxamide]	< 10
CC(C)(C)[C@H](NC(=O)C(F)(F)F)C(=O)N1C[C@H]2C([C@H]1C(=O)N[C@H](C#N)CC1C(=O)Nc3c(Cl)cccc31)C2(C)C (stereo in doubt) [Compound 235, (1S,2S,5S)-N-[(1S)-2-(7-chloro-2-oxo-indolin-3-yl)-1-cyano-ethyl]-3-[(2S)-3,3-dimethyl-2-[(2,2,2-trifluoroacetyl)amino]butanoyl]-6,6-dimethyl-3-azabicyclo[3.1.0]hexane-2-carboxamide]	< 10
COc1ccc2c(c1)NC(=O)C2C[C@@H](C#N)NC(=O)[C@@H]1[C@H]2[C@H](CN1C(=O)[C@@H](NC(=O)C(F)(F)F)C(C)(C)C)C2(C)C (stereo partly drawn) [Compound 222, (1S,2S,5S)-N-[(1S)-1-cyano-2-(6-methoxy-2-oxo-indolin-3-yl)ethyl]-3-[(2S)-3,3-dimethyl-2-[(2,2,2-trifluoroacetyl)amino]butanoyl]-6,6-dimethyl-3-azabicyclo[3.1.0]hexane-2-carboxamide]	10 to 50
CC(C)(C)[C@H](NC(=O)C(F)(F)F)C(=O)N1C[C@H]2[C@H]([C@H]1C(=O)N[C@H](C#N)CC1C(=O)Nc3cc(Cl)ccc31)C2(C)C (stereo partly drawn) [Compound 219, (1S,2S,5S)-N-[(1S)-2-(6-chloro-2-oxo-indolin-3-yl)-1-cyano-ethyl]-3-[(2S)-3,3-dimethyl-2-[(2,2,2-trifluoroacetyl)amino]butanoyl]-6,6-dimethyl-3-azabicyclo[3.1.0]hexane-2-carboxamide]	10 to 50
CC(C)(C)[C@H](NC(=O)C(F)(F)F)C(=O)N1C[C@H]2[C@H]([C@H]1C(=O)N[C@H](C#N)Cn1nnc3ccccc31)C2(C)C [Compound 308, (1S,2S,5S)-N-[(1S)-2-(benzotriazol-1-yl)-1-cyano-ethyl]-3-[(2S)-3,3-dimethyl-2-[(2,2,2-trifluoroacetyl)amino]butanoyl]-6,6-dimethyl-3-azabicyclo[3.1.0]hexane-2-carboxamide]	≥ 1000
CC(C)(C)[C@H](NC(=O)C(F)(F)F)C(=O)N1C[C@H]2[C@@H]([C@H]1C(=O)NC(C#N)CC1C(=O)Nc3ncccc31)C2(C)C (some centres unmarked) [Compound 249]	500 to 1000
CC(C)(C)[C@H](NC(=O)C(F)(F)F)C(=O)N1C[C@H]2C([C@H]1C(=O)NC(C#N)CC1(F)C(=O)Nc3ccccc31)C2(C)C (stereo in doubt) [Compound 227, (1S,2S,5S)-N-[1-cyano-2-(3-fluoro-2-oxo-indolin-3-yl)ethyl]-3-[(2S)-3,3-dimethyl-2-[(2,2,2-trifluoroacetyl)amino]butanoyl]-6,6-dimethyl-3-azabicyclo[3.1.0]hexane-2-carboxamide]	10 to 50
CC(C)(C)[C@H](NS(C)(=O)=O)C(=O)N1C[C@H]2C([C@H]1C(=O)N[C@H](C#N)CC1C(=O)Nc3ccccc31)C2(C)C (stereo in doubt) [Compound 237, (1S,2S,5S)-N-[(1S)-1-cyano-2-(2-oxoindolin-3-yl)ethyl]-3-[(2S)-2-(methanesulfonamido)-3,3-dimethyl-butanoyl]-6,6-dimethyl-3-azabicyclo[3.1.0]hexane-2-carboxamide]	< 10
CC(C)(C)[C@H](NC(=O)C(F)(F)F)C(=O)N1C[C@H]2C([C@H]1C(=O)N[C@H](C#N)CC1C(=O)Nc3ccc(F)cc31)C2(C)C (stereo in doubt) [Compound 236, (1S,2S,5S)-N-[(1S)-1-cyano-2-(5-fluoro-2-oxo-indolin-3-yl)ethyl]-3-[(2S)-3,3-dimethyl-2-[(2,2,2-trifluoroacetyl)amino]butanoyl]-6,6-dimethyl-3-azabicyclo[3.1.0]hexane-2-carboxamide]	10 to 50
CC(C)(C)[C@H](NC(=O)C(F)(F)F)C(=O)N1C[C@H]2C([C@H]1C(=O)N[C@H](C#N)CC1C(=O)Nc3cc(Br)ccc31)C2(C)C (stereo in doubt) [Compound 233, (1S,2S,5S)-N-[(1S)-2-(6-bromo-2-oxo-indolin-3-yl)-1-cyano-ethyl]-3-[(2S)-3,3-dimethyl-2-[(2,2,2-trifluoroacetyl)amino]butanoyl]-6,6-dimethyl-3-azabicyclo[3.1.0]hexane-2-carboxamide]	50 to 100
Cc1ccc2c(c1)C(F)(CC(C#N)NC(=O)C1C3[C@H](CN1C(=O)[C@@H](NC(=O)C(F)(F)F)C(C)(C)C)C3(C)C)C(=O)N2 (stereo in doubt) [Compound 229, (1S,2S,5S)-N-[1-cyano-2-(3-fluoro-5-methyl-2-oxo-indolin-3-yl)ethyl]-3-[(2S)-3,3-dimethyl-2-[(2,2,2-trifluoroacetyl)amino]butanoyl]-6,6-dimethyl-3-azabicyclo[3.1.0]hexane-2-carboxamide]	10 to 50
CC(C)(C)[C@H](NS(C)(=O)=O)C(=O)N1C[C@H]2C([C@H]1C(=O)N[C@H](C#N)C[C@@H]1CCNC1=O)C2(C)C (stereo in doubt) [Compound 201, (1R,2S,5S)—N—((S)-1-Cyano-2-((S)-2-oxopyrrolidin-3-yl)ethyl)-3-((S)-3,3-dimethyl-2-(methylsulfonamido)butanoyl)-6,6-dimethyl-3-azabicyclo[3.1.0]hexane-2-carboxamide]	10 to 50
CC(C)(C)[C@H](NC(=O)C(F)(F)F)C(=O)N1C[C@H]2[C@H]([C@H]1C(=O)N[C@H](C#N)CC1C(=O)Nc3ccc(Cl)cc31)C2(C)C (stereo partly drawn) [Compound 218, (1S,2S,5S)-N-[(1S)-2-(5-chloro-2-oxo-indolin-3-yl)-1-cyano-ethyl]-3-[(2S)-3,3-dimethyl-2-[(2,2,2-trifluoroacetyl)amino]butanoyl]-6,6-dimethyl-3-azabicyclo[3.1.0]hexane-2-carboxamide]	10 to 50
CC(C)(C)[C@H](NC(=O)C(F)(F)F)C(=O)N1C[C@H]2C(C1C(=O)N[C@H](C#N)CC1(F)C(=O)Nc3ccccc31)C2(C)C (stereo in doubt) [Compound 228, (1S,2S,5S)-N-[(1S)-1-cyano-2-(3-fluoro-2-oxo-indolin-3-yl)ethyl]-3-[(2S)-3,3-dimethyl-2-[(2,2,2-trifluoroacetyl)amino]butanoyl]-6,6-dimethyl-3-azabicyclo[3.1.0]hexane-2-carboxamide]	10 to 50
CC(C)CCN(C(=O)[C@@H]1[C@@H]2[C@H](CN1C(=O)[C@@H](NC(=O)C(F)(F)F)C(C)(C)C)C2(C)C)[C@H](C#N)C[C@@H]1C(=O)Nc2ccccc21 [Compound 247, (1R,2S,5S)-N-[(1S)-1-cyano-2-(2-oxoindolin-3-yl)ethyl]-3-[(2S)-3,3-dimethyl-2-[(2,2,2-trifluoroacetyl)amino]butanoyl]-N-isopentyl-6,6-dimethyl-3-azabicyclo[3.1.0]hexane-2-carboxamide]	≥ 1000
CC(C)(C)[C@H](NC(=O)C(F)(F)F)C(=O)N1C[C@H]2[C@@H]([C@H]1C(=O)NC(C#N)CCC1C(=O)Nc3ccccc31)C2(C)C (stereo partly drawn) [Compound 250, (1R,2S,5S)—N-[1-Cyano-3-(2-oxoindolin-3-yl)propyl]-6,6-dimethyl-3-[(2S)-3,3-dimethyl-2-[(2,2,2-trifluoroacetyl)amino]butanoyl]-3-azabicyclo[3.1.0]hexane-2-carboxamide]	500 to 1000
CC(C)(C)[C@H](NC(=O)C(F)(F)F)C(=O)N1C[C@H]2C([C@H]1C(=O)N[C@H](C#N)Cn1c(=O)[nH]c3ccccc31)C2(C)C (stereo in doubt) [Compound 301, (1R,2S,5S)—N—((S)-1-cyano-2-(2-oxo-2,3-dihydro-1H-benzo[d]imidazol-1-yl)ethyl)-3-((S)-3,3-dimethyl-2-(2,2,2-trifluoroacetamido)butanoyl)-6,6-dimethyl-3-azabicyclo[3.1.0]hexane-2-carboxamide]	≥ 1000
COc1ccc2c(c1)C(C[C@@H](C#N)NC(=O)[C@@H]1[C@H]3[C@H](CN1C(=O)[C@@H](NC(=O)C(F)(F)F)C(C)(C)C)C3(C)C)C(=O)N2 (stereo partly drawn) [Compound 221, (1S,2S,5S)-N-[(1S)-1-cyano-2-(5-methoxy-2-oxo-indolin-3-yl)ethyl]-3-[(2S)-3,3-dimethyl-2-[(2,2,2-trifluoroacetyl)amino]butanoyl]-6,6-dimethyl-3-azabicyclo[3.1.0]hexane-2-carboxamide]	< 10
